Experimental findings from patent US20230107926A1, “A METHOD FOR TREATING A BIOLOGICAL OBJECT” (OPTICEPT TECHNOLOGIES AB, priority 2020, published 2023) are described below.

In assay [1] the test system is Cuttings of Pelargonium interspecific: Calliope M Dark Red. Kind of assay: Comparative trial of vacuum impregnation (VI) on unrooted Pelargonium cuttings: storage, rooting, losses, acceptability. Type of assay: in vivo. The settings on record: for % Losses after storage: stored at 8° C, losses before sticking; for % Losses / % Rooted / %Not rooted / % Acceptable YPL: 21 days after sticking; for % Acceptable YPL: YPL = young plant. The source says:
Comparative trials were made to investigate the effect of a method according to the present invention, that is a method preferably involving vacuum impregnation and which definitely is free from any PEF step, and a method involving a PEF step, either alone or together with an impregnation step, and of course also compared with untreated control(s). Cuttings of Pelargonium interspecific: Calliope M Dark Red was used as the testing material. When testing the method according to the second aspect of the present invention, the following vacuum impregnation parameters (protocol) were used: A pressure falling time of 10 minutes, a holding time of the obtained low pressure of 1 minute and then 15 minutes rising time when the pressure was increased again to atmospheric pressure. The minimum pressure was set at 220 mbar and trehalose 10% was used as the impregnation solution. For the PEF trial and step (not according to the present invention), the parameters used were the following: 500 V in continuous system, 250 µs pulse width and 50 PPV (pulses per volume), 0.3 KW. For the group of cuttings that was subjected only to vacuum impregnation, that is by a method according to the present invention, an additional rinsing step was also performed. Moreover, each group tested consisted of 80 unrooted cuttings, and not any repetitions were performed. When the pelargonium cuttings were received they were processed immediately. After the treatment, the groups were placed in perforated trays and kept inside slightly opened boxes. The boxes were stored 7 days at 8° C. After 7 days of storage the cuttings were evaluated and counted. The damaged (due to Botrytis), rotten or withered ones are removed. These are called losses before sticking. The rooting, losses and acceptability results were obtained 21 days after sticking. […] It should be noted that data for losses after storage were obtained after […] of storage.

The subject of a further assay is Roses (variety: Athena). Kind of assay: Vacuum impregnation on roses, appearance during vase storage at room temperature. The format is in vivo. The note with it: fructose 2-15 wt%, VI without PEF, versus untreated control. The source says:
Roses (variety: Athena) were purchased form a local distributor. The roses were transported from Kenya. The roses arrived at the test site 4 days after harvest.
The treatment according to the present invention was applied to the roses immediately after the arrival. The roses were placed vertically in an impregnation solution, making sure that the flower bud was not immersed in the impregnation solution, thus only the stem and leaves were immersed. The impregnation solution contained sugar (fructose at a concentration of 2-15 wt%). Vacuum was applied reaching a minimum pressure range of 60 - 300 mbar, and with a total treatment time of about 12 minutes.
To continue with the trial performed, after that the vacuum impregnation treatment was finished, the roses were taken out from the impregnation solution. They were then immersed in water, again excluding the flower buds, to wash the sugars from the surface and then placed in a cold room for 24 hours to recover. They were in this case not dried in any way.
After 24 hours the roses were moved to room temperature in order to evaluate the results at the end user conditions. They were stored in a vase, with only the lower part of the stems immersed in water, and the water was renewed every two days.
Roses were stored at room temperature for 13 days after the treatment (Right: roses treated according to the present invention, left: control roses, i.e. not treated).

For `OC[C@H]1O[C@H](O[C@H]2O[C@H](CO)[C@@H](O)[C@H](O)[C@H]2O)[C@H](O)[C@@H](O)[C@@H]1O` [Trehalose 10%, trehalose], the “% Losses after storage” value in assay [1] (No PEF, only VI (220 mbar)) was found to be 4%. Moreover, in assay [1] (No PEF, only VI), the “% Losses” value is given as 0%, the “% Rooted” value was found to be 88%, the “%Not rooted” value worked out at 8% and the “% Acceptable YPL” value is given as 46%. In addition, the “% Losses after storage” value in assay [1] (VI + PEF (500 V, 250 µs, 50 PPV)) is 0%. Moreover, in assay [1] (VI + PEF), the “% Losses” value is on record as 10%, the “% Rooted” value worked out at 75%, the “%Not rooted” value stood at 15% and the “% Acceptable YPL” value is reported as 35%.

For `O=C(CO)[C@@H](O)[C@H](O)[C@H](O)CO` [sugar, fructose], in the assay with Roses (variety: Athena) (stem and leaves immersed, 13 days at room temperature), the “general appearance of roses” value was “clear improvement”. For the same compound, in the assay with Roses (variety: Athena) (room temperature storage), the “browning and wilting of the flower buds” value is on record as “delayed”; the “freshness of the treated leaves” value is “preserve freshness better”.
